Data published in the supplement of paper PMC9663587.

Columns and labels:
Experiment in all cases: GRmax, 72 h; higher = less effect;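 further: breast cell lines in 384-well plates, nine doses across a 10^4 range, Dye Drop imaging of viable cells vs DMSO and time-zero plates, GR 0 means no net growth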
184A1 = test system: 184A1
AU565 = test system: AU565
BT20 = test system: BT20
HCC1419 = test system: HCC1419
HCC1806 = test system: HCC1806
HCC1937 = test system: HCC1937
HCC202 = test system: HCC202
HTERT_HME1 = test system: HTERT_HME1
MDAMB175VII = test system: MDAMB175VII
MDAMB330 = test system: MDAMB330
MDAMB436 = test system: MDAMB436
MGH312 = test system: MGH312
SUM185PE = test system: SUM185PE
ZR751 = test system: ZR751

| SMILES | GRmax, 72 h (184A1) | GRmax, 72 h (AU565) | GRmax, 72 h (BT20) | GRmax, 72 h (HCC1419) | GRmax, 72 h (HCC1806) | GRmax, 72 h (HCC1937) | GRmax, 72 h (HCC202) | GRmax, 72 h (HTERT_HME1) | GRmax, 72 h (MDAMB175VII) | GRmax, 72 h (MDAMB330) | GRmax, 72 h (MDAMB436) | GRmax, 72 h (MGH312) | GRmax, 72 h (SUM185PE) | GRmax, 72 h (ZR751) |
| --- | --- | --- | --- | --- | --- | --- | --- | --- | --- | --- | --- | --- | --- | --- |
| COc1ccc2c(c1)[C@]1(C[C@H]1c1ccc3c(/C=C/c4ccc(CN5C[C@@H](C)O[C@@H](C)C5)cc4)n[nH]c3c1)C(=O)N2 | 0.0075 GR | -0.165 GR | -0.231 GR | 0.32 GR | -0.106 GR | -0.149 GR | 0.493 GR | -0.106 GR | 0.046 GR | 0.284 GR | -0.226 GR | -0.28 GR | 0.364 GR | 0.166 GR |
| COc1cccc(OCCCN)c1-c1cc(Nc2cnc(C#N)cn2)n[nH]1 | 0.529 GR | 0.0394 GR | -0.2 GR | 0.248 GR | -0.476 GR | 0.0059 GR | 0.0486 GR | -0.0816 GR | 0.0945 GR | -0.183 GR | 0.0078 GR | 0.887 GR | 0.559 GR | 0.384 GR |
| CC(=O)Nc1cccc(-n2c(=O)n(C3CC3)c(=O)c3c(Nc4ccc(I)cc4F)n(C)c(=O)c(C)c32)c1 (max 1 µM) | 0.187 GR | 1.01 GR | 0.503 GR | 0.426 GR | 0.704 GR | 0.689 GR | 0.526 GR | 0.203 GR | -0.698 GR | 0.251 GR | 0.557 GR | 1.12 GR | 0.904 GR | 0.266 GR |
| CCc1cnn2c(NCc3ccc[n+]([O-])c3)cc(N3CCCC[C@H]3CCO)nc12 (max 1 µM) | -0.33 GR | -0.752 GR | -0.698 GR | -0.476 GR | -0.459 GR | -0.207 GR | 0.0907 GR | -0.285 GR | -0.493 GR | -0.504 GR | -0.144 GR | -0.951 GR | 0.18 GR | -0.406 GR |
| CC(=O)c1c(C)c2cnc(Nc3ccc(N4CCNCC4)cn3)nc2n(C2CCCC2)c1=O (max 3.162 µM) | 0.128 GR | 0.177 GR | 0.162 GR | 0.441 GR | 0.692 GR | 1.08 GR | 0.691 GR | 0.257 GR | -0.0887 GR | 0.207 GR | 1.06 GR | 1.03 GR | 0.852 GR | 0.482 GR |
| CCc1cncnc1N1CCN(Cc2nc3ccc(C(F)(F)F)cc3[nH]2)CC1 (max 10 µM) | 1.02 GR | 0.476 GR | 0.66 GR | 0.349 GR | 1.15 GR | 0.769 GR | 0.673 GR | 0.455 GR | -0.426 GR | 0.621 GR | 0.194 GR | 0.311 GR | 0.182 GR | 0.867 GR |
| CCCCOc1c(C(=O)c2c(F)cc(C)cc2F)c[nH]c2nncc1-2 (max 10 µM) | -0.0413 GR | -0.158 GR | -0.105 GR | 0.4 GR | 0.0151 GR | -0.0492 GR | 0.384 GR | -0.0276 GR | -0.0619 GR | 0.129 GR | 0.264 GR | 0.0975 GR | 0.905 GR | 0.451 GR |
| CCN1CCN(Cc2ccc(Nc3ncc(F)c(-c4cc(F)c5nc(C)n(C(C)C)c5c4)n3)nc2)CC1 (max 10 µM) | -0.105 GR | -0.321 GR | -0.216 GR | 0.228 GR | -0.444 GR | 0.302 GR | 0.3 GR | 0.0156 GR | -0.192 GR | -0.0152 GR | -0.333 GR | -0.461 GR | 0.486 GR | 0.311 GR |
| CNc1nc(-c2ccc3c(N)n[nH]c3c2)cc(N2C[C@@H](C(=O)NC3CCCCC3)CC[C@H]2C)n1 (max 10 µM) | 0.572 GR | 0.391 GR | 0.68 GR | 0.442 GR | 0.869 GR | 0.585 GR | 0.155 GR | 0.641 GR | -0.459 GR | -0.738 GR | 0.811 GR | -0.599 GR | 0.54 GR | 0.425 GR |
| CO[C@@H](C)Cn1c(=O)n(C)c2cnc3ccc(-c4cncc(C(C)(C)O)c4)cc3c21 (max 10 µM) | 0.0943 GR | -0.533 GR | -0.645 GR | -0.769 GR | -0.0061 GR | 0.0369 GR | -0.0355 GR | 0.0519 GR | -0.938 GR | -0.799 GR | 0.323 GR | -0.795 GR | -0.0606 GR | -0.117 GR |
| Cc1nn(C)c(COc2ccc(N3CCN(S(=O)(=O)N(C)C)CC3)cc2)c1-c1cccc2c(CCCOc3cccc4ccccc34)c(C(=O)O)n(CCN3CCOCC3)c12 (max 10 µM) | -0.164 GR | 0.611 GR | 0.821 GR | 0.708 GR | 0.905 GR | 0.724 GR | 0.828 GR | -0.422 GR | 0.705 GR | 0.881 GR | 0.873 GR | 0.775 GR | 0.532 GR | 1.03 GR |
| CN(C)CC[C@H](CSc1ccccc1)Nc1ccc(S(=O)(=O)NC(=O)c2ccc(N3CCN(Cc4ccccc4-c4ccc(Cl)cc4)CC3)cc2)cc1[N+](=O)[O-] [ABT-737] (max 10 µM) | -0.0149 GR | 0.261 GR | 0.593 GR | 0.471 GR | 0.729 GR | 0.269 GR | 0.588 GR | 0.495 GR | -0.101 GR | -0.104 GR | 0.815 GR | 0.0409 GR | -0.294 GR | 0.886 GR |
| C=CCn1c(=O)c2cnc(Nc3ccc(N4CCN(C)CC4)cc3)nc2n1-c1cccc(C(C)(C)O)n1 [AZD1775] (max 10 µM) | 0.0471 GR | -0.485 GR | -0.677 GR | -0.0276 GR | -0.55 GR | -0.0795 GR | -0.148 GR | -0.17 GR | -0.203 GR | -0.234 GR | -0.26 GR | -0.873 GR | 0.213 GR | 0.247 GR |
| CNC(=O)c1cccc(-c2ccc3c(N4CCOC[C@@H]4C)nc(N4CCOC[C@@H]4C)nc3n2)c1 [AZD2014] (max 10 µM) | 0.0847 GR | -0.0212 GR | 0.151 GR | -0.12 GR | 0.409 GR | 0.366 GR | 0.0087 GR | 0.143 GR | -0.756 GR | -0.733 GR | 0.519 GR | -0.693 GR | 0.244 GR | -0.0477 GR |
